Measured values published in patent publication US20210368825A1, “FEED ADDITIVE FOR DAIRY CATTLE COMPRISING N-ACETYL-L-TRYPTOPHAN AS ACTIVE INGREDIENT” (CJ CHEILJEDANG CORPORATION, priority 2018, published 2021).

What was measured:
[1] = tested on: milking cows after calving; assay: Analysis of milk yield of dairy cattle after calving according to NALT feeding; format: in vivo, Holstein Friesian cows
Text: (§1) From among Holstein Friesian cows in the late stage of gestation corresponding to 60 days before calving, 8 cows were selected in consideration of calving time (expected calving date±15 days), the number of calving (calving number), and the like, and 4 cows were assigned to each of a control (untreated) and a treated group.
(§2) In the present disclosure, as a basal diet fed during a dry period and a milking period, total mixed ration (TMR), roughage, and concentrates were provided in accordance with NRC (2001) nutrition requirements for dry cows. In the case of the treated group, evaluation was performed by supplementing N-acetyl-L-tryptophan (NALT) to the basal diet. Newborn calves were fed with colostrum for 3 days and then fed with milk obtained during a milking process for 8 weeks.
(§3) Evaluation of feed feeding before calving by feeding N-acetyl-L-tryptophan was performed for 60±8 days (error caused by difference in expected calving dates). The control was fed with the basal diet, and the treated group was fed with the basal diet supplemented with 15 g of NALT.
Milk yield of each of the 8 milking cows used in the present disclosure was recorded at 3 a.m. and 3 p.m. every day for 8 weeks, and average milk yield was calculated after pooling them every two weeks after calving.

[2] = tested on: milking cows after calving; assay: Analysis of milk quality of dairy cattle after calving according to NALT feeding (milk scanner FT1); format: in vivo, Holstein Friesian cows; design: Aceton / Aceton, total AVG / BHB / BHB, total AVG / Cas.B / Cas.B, total AVG / Mono FA / Mono FA, total AVG / Saturated FA / Saturated FA, total AVG / Total FA / Total FA, total AVG: unit not given here
Text: as §1, §2, §3
Raw milk was pooled at 3 a.m. and 3 p.m. every 14 days after calving when lactation was initiated, and chemical compositions contained in milk, i.e., milk fat, milk protein, lactose, solid-not-fat (SNF), somatic cells, milk urea nitrogen (MUN), acetone, beta-hydroxybutyrate (BHB), casein-beta, mono- and poly-unsaturated fatty acids, saturated fatty acids, and total fatty acid, were analyzed using a milk scanner FT1 (Foss Alle 1 DK-3400 Hilleroed, Denmark).
In addition, in order to identify changes in milk protein yield and milk fat yield, changes were identified on a weekly basis.

[3] = tested on: dairy cattle in dry period; assay: Change in hematological properties of dairy cattle in dry period according to NALT feeding; format: in vivo, Holstein Friesian cows
Text: as §1, §2, §3
(§4) Blood was collected from dairy cattle and calves during 6 weeks of the dry period and immediately after calving via the jugular vein before feeding a morning feed every 2 weeks for 8 weeks. The collected blood was aliquoted into a serum tube (BD Vacutainer, Plymouth, UK) and a heparin tube (Becton-Dickinson, Belliver Industrial Estate, Plymouth, PL6 7BP, UK) and centrifuged (3,500 rpm, 15 min, 20° C.) to separate plasma.
(§5) Blood samples for analysis of changes in hematological properties such as white blood cells (WBC), lymphocytes, monocytes, granulocytes, mean corpuscular volume, mean corpuscular hemoglobin, and platelets were aliquoted into an ethylenediaminetetraacetic acid (EDTA)-treated vacutainer (Becton-Dickinson, Franklin Lakes, N.J., USA) and analyzed using a VetScan HM2 Hematology System (ABAXIS, Calif., USA).

[4] = tested on: dairy cattle after calving; assay: Change in hematological properties of dairy cattle after calving according to NALT feeding; format: in vivo, Holstein Friesian cows
Text: as §1, §2, §3, §4, §5

[5] = tested on: calves born from dairy cattle; assay: Change in hematological properties of calves born from dairy cattle according to NALT feeding; format: in vivo, Holstein Friesian cows (calves)
Text: as §1, §2, §3, §4, §5

[6] = tested on: dairy cattle after calving; design: species or system Holstein Friesian cows; details: in vivo
Text: as §1, §2, §3, §4
Samples for analysis of metabolic changes such as albumin, glutamic-oxalacetic transaminase (GOT), blood urea nitrogen (BUN), triglycerides (TG), cholesterol (CHO), glucose (GLU), and non-esterified fatty acid (NEFA) were aliquoted into a 1.5 mL tube (Eppendorf AG, Hamburg, Germany) in an amount of 500 μL each and stored in a deep freezer at −80° C.

[7] = average over 8 weeks after calving
[8] = milk, average over 8 weeks after calving
[9] = calves born from NALT-treated dairy cattle

CC(=O)N[C@@H](Cc1c[nH]c2ccccc12)C(=O)O [NALT, N-acetyl-L-tryptophan]
Milk yield ([1]; 0 wk (immediately after calving)): 24.03 kg | increase in average milk yield compared with control ([1]; 8 weeks after calving): ≥ 4 kg | Milk yield, total AVG [1, 7]: 35.44 kg | Lactose ([2]; 0 wk): 3.48% | Milk fat ([2]; 0 wk): 6.25% | Milk protein ([2]; 0 wk): 12.81% | Milk urea nitrogen ([2]; 0 wk): 24.43 mg/dL | Solid-not Fat ([2]; 0 wk): 17.17% | Somatic cells ([2]; 0 wk): 4867.95 ×10^3 | Lactose, total AVG [2, 7]: 4.38% | Milk fat, total AVG [2, 7]: 6.31% | Milk protein, total AVG [2, 7]: 4.88% | Milk urea nitrogen, total AVG [2, 7]: 16.49 mg/dL | Solid-not Fat, total AVG [2, 7]: 9.95% | Somatic cells, total AVG [2, 7]: 1086.15 ×10^3 | milk fat yield of colostrum compared with control ([2]; immediately after calving): lower | milk protein yield of colostrum compared with control ([2]; immediately after calving): higher | BHB ([2]; milk beta-hydroxybutyrate, 0 wk): 0.00 | BHB, total AVG ([2]; milk beta-hydroxybutyrate, average over 8 weeks after calving): 0.04 | Cas.B ([2]; milk casein-beta, 0 wk): 9.76 | Cas.B, total AVG ([2]; milk casein-beta, average over 8 weeks after calving): 3.71 | Mono FA ([2]; milk mono-unsaturated fatty acids, 0 wk): 1.35 | Mono FA, total AVG ([2]; milk mono-unsaturated fatty acids, average over 8 weeks after calving): 1.70 | Poly FA ([2]; milk poly-unsaturated fatty acids, 0 wk): 0.34 | Poly FA, total AVG ([2]; milk poly-unsaturated fatty acids, average over 8 weeks after calving): 0.36 | Aceton ([2]; milk, 0 wk): 0.00 | Saturated FA ([2]; milk, 0 wk): 4.95 | Total FA ([2]; milk, 0 wk): 1.38 | Aceton, total AVG [2, 8]: 0.07 | Saturated FA, total AVG [2, 8]: 4.20 | Total FA, total AVG [2, 8]: 2.16 | milk fat yield as the experiment progressed ([2]; weekly basis after calving, control showed a tendency to decrease): tendency to be maintained constantly | Monocyte ([3]; dry period, 0 wk, reference 0-0.84): 0.48 K/uL | Granulocyte ([3]; dry period, 0 wk, reference 0.6-6.7): 3.89 K/uL | Lymphocyte ([3]; dry period, 0 wk, reference 2.5-7.5): 7.68 K/uL | WBC ([3]; dry period, 0 wk, reference 4-12): 10.45 K/uL | MCH ([3]; dry period, 0 wk, reference 11-17): 16.01 pg | MCV ([3]; dry period, 0 wk, reference 40-60): 46.75 fL | Platelet ([3]; dry period, 0 wk, reference 100-800): 297.67 K/ul | Monocyte, total AVG ([3]; dry period, average 0 to 6 weeks, reference 0-0.84): 0.74 K/uL | Granulocyte, total AVG ([3]; dry period, average 0 to 6 weeks, reference 0.6-6.7): 3.29 K/uL | Lymphocyte, total AVG ([3]; dry period, average 0 to 6 weeks, reference 2.5-7.5): 7.88 K/uL | WBC, total AVG ([3]; dry period, average 0 to 6 weeks, reference 4-12): 11.91 K/uL | MCH, total AVG ([3]; dry period, average 0 to 6 weeks, reference 11-17): 16.74 pg | MCV, total AVG ([3]; dry period, average 0 to 6 weeks, reference 40-60): 47.54 fL | Platelet, total AVG ([3]; dry period, average 0 to 6 weeks, reference 100-800): 331.35 K/ul | effect on hematological properties of dairy cattle compared with control ([3]; during the dry period): did not significantly affect | effect on hematological properties of dairy cattle compared with control [4]: did not significantly affect | Monocyte ([4]; 0 wk, reference 0-0.84): 0.92 K/uL | Granulocyte ([4]; 0 wk, reference 0.6-6.7): 6.41 K/uL | Lymphocyte ([4]; 0 wk, reference 2.5-7.5): 7.99 K/uL | WBC ([4]; 0 wk, reference 4-12): 15.32 K/uL | MCH ([4]; 0 wk, reference 11-17): 16.80 pg | MCV ([4]; 0 wk, reference 40-60): 47.00 fL | Platelet ([4]; 0 wk, reference 100-800): 348.75 K/ul | Monocyte, total AVG ([4]; average 0 to 8 weeks, reference 0-0.84): 0.91 K/uL | Granulocyte, total AVG ([4]; average 0 to 8 weeks, reference 0.6-6.7): 5.18 K/uL | Lymphocyte, total AVG ([4]; average 0 to 8 weeks, reference 2.5-7.5): 7.86 K/uL | WBC, total AVG ([4]; average 0 to 8 weeks, reference 4-12): 13.95 K/uL | MCH, total AVG ([4]; average 0 to 8 weeks, reference 11-17): 16.60 pg | MCV, total AVG ([4]; average 0 to 8 weeks, reference 40-60): 46.55 fL | Platelet, total AVG ([4]; average 0 to 8 weeks, reference 100-800): 480.51 K/ul | initial index of mean corpuscular hemoglobin (MCH) of newborn calves compared with control [5, 9]: statistically significant difference | initial index of mean corpuscular volume (MCV) of newborn calves compared with control [5, 9]: statistically significant difference | monocyte index of newborn calves compared with control [5, 9]: significant differences | Monocyte ([5]; calves, 0 wk, reference 0-0.84): 0.32 K/uL | Granulocyte ([5]; calves, 0 wk, reference 0.6-6.7): 9.68 K/uL | Lymphocyte ([5]; calves, 0 wk, reference 2.5-7.5): 3.72 K/uL | WBC ([5]; calves, 0 wk, reference 4-12): 13.72 K/uL | MCH ([5]; calves, 0 wk, reference 11-17, P 0.056): 12.95 pg | MCV ([5]; calves, 0 wk, reference 40-60, P 0.027): 39.00 fL | Platelet ([5]; calves, 0 wk, reference 100-800): 512.75 K/ul | Monocyte, total AVG ([5]; calves, average 0 to 8 weeks, reference 0-0.84, P 0.031): 0.53 K/uL | Granulocyte, total AVG ([5]; calves, average 0 to 8 weeks, reference 0.6-6.7): 4.69 K/uL | Lymphocyte, total AVG ([5]; calves, average 0 to 8 weeks, reference 2.5-7.5): 6.93 K/uL | WBC, total AVG ([5]; calves, average 0 to 8 weeks, reference 4-12): 12.14 K/uL | MCH, total AVG ([5]; calves, average 0 to 8 weeks, reference 11-17): 11.20 pg | MCV, total AVG ([5]; calves, average 0 to 8 weeks, reference 40-60): 31.80 fL | Platelet, total AVG ([5]; calves, average 0 to 8 weeks, reference 100-800): 584.35 K/ul | immune response of the calves born from dairy cattle ([5]; conclusion drawn from hematology of calves): positive effects | Albumin [6]: 3.73 g/dL | Albumin, total AVG [6]: 4.01 g/dL | BUN [6]: 10.75 mg/dL | BUN, total AVG [6]: 16.75 mg/dL | CHO [6]: 101.25 mg/dL | CHO, total AVG [6]: 188.45 mg/dL | GLU [6]: 83.75 mg/dL | GLU, total AVG [6]: 68.35 mg/dL | GOT [6]: 87.00 U/L | GOT, total AVG [6]: 89.65 U/L | TG [6]: 8.00 mg/dL | TG, total AVG [6]: 9.45 mg/dL | effect on metabolic changes of dairy cattle compared with control [6]: did not significantly affect
